Data as given in patent US20240208992A1, “MACROCYCLES AS CFTR MODULATORS” (Idorsia Pharmaceuticals Ltd, priority 2021, published 2024).

Biological target: human F508del-CFTR (Homo sapiens, UniProt P13569, DEL508-508)
Test: F508del-CFTR cell surface expression (corrector activity), DiscoveRx ß-galactosidase complementation chemiluminescence assay in recombinant U2OS cell line;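 also: U2OS cells co-expressing ProLink-tagged F508del-CFTR and a membrane-anchored enzyme acceptor, where more surface CFTR restores β-galactosidase activity measured by chemiluminescence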
Settings: for EC50: EC50, F508del-CFTR cell surface expression, U2OS cells, 16h compound incubation, geomean values; for Emax: U2OS, in relation to Emax of corrector lumacaftor (=100%), arithmetic mean values

Sequence of human F508del-CFTR (P13569 with tags, fused parts or gaps DEL508-508): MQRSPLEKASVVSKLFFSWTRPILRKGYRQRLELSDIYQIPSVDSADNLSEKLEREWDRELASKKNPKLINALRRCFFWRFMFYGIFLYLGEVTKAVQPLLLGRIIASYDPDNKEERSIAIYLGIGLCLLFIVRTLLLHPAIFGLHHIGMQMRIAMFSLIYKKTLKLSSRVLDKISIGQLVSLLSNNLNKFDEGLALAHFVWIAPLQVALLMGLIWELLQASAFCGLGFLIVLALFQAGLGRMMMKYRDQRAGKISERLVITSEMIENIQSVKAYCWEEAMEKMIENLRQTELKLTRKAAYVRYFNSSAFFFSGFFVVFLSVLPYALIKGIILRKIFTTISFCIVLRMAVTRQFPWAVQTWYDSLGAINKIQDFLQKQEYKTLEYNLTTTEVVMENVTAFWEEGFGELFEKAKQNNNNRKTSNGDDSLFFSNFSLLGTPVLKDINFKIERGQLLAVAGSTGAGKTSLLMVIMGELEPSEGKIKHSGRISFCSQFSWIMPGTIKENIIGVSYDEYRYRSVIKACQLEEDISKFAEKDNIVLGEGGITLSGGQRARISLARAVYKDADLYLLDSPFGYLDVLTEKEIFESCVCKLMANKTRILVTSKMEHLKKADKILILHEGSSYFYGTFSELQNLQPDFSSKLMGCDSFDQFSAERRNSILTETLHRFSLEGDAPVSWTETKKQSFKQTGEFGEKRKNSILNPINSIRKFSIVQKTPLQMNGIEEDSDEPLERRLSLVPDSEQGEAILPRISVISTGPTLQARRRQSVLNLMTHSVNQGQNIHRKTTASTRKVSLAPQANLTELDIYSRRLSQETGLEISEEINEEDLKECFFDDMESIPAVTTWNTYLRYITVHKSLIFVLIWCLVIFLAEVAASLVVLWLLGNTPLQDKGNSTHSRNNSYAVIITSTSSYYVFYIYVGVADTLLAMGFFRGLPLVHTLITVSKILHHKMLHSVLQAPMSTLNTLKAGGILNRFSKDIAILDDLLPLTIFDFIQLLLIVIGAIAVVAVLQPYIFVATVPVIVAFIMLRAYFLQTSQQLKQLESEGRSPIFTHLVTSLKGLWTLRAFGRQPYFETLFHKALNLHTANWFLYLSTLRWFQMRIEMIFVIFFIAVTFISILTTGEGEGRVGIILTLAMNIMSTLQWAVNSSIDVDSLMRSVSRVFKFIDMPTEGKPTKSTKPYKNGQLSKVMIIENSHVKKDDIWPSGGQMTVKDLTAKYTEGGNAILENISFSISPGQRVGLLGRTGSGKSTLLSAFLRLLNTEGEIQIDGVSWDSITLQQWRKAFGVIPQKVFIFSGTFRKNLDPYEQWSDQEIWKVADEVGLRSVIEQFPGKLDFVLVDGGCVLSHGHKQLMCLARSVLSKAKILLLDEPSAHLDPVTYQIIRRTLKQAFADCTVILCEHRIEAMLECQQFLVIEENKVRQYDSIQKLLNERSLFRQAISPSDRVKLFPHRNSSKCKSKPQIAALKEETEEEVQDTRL

SMILES | EC50 [nM] | Emax [%]
COc1nc(C)cc2c1C(=O)N[C@H](C(=O)NCCc1cc(C(F)(F)F)no1)CC(=O)N(C)[C@@H](CC(C)C)C(=O)N1CCCC[C@H]1C(=O)N[C@H](Cc1ccccc1)CO2 [Example 667, (7S,11S,17aS,20R)-20-benzyl-11-isobutyl-4-methoxy-2,10-dimethyl-5,9,12,18-tetraoxo-N-(2-(3-(trifluoromethyl)isoxazol-5-yl)ethyl)-5,6,7,8,9,10,11,12,15,16,17,17a,18,19,20,21-hexadecahydro-14H-dipyrido[2,1-f:3′,4′-p][1]oxa[4,7,10,14]tetraazacycloheptadecine-7-carboxamide] | 764 | 149
COc1nccc2c1C(=O)N[C@H](C(=O)NCCc1cc(C3CC3)no1)CC(=O)N(C)[C@@H](CC(C)C)C(=O)N1CC[C@H](c3ccccc3)C[C@H]1C(=O)N[C@H](Cc1ccccc1)CO2 [Example 670, (7S,11S,17aS,20R)-20-benzyl-N-(2-(3-cyclopropylisoxazol-5-yl)ethyl)-11-isobutyl-4-methoxy-10-methyl-5,9,12,18-tetraoxo-16-phenyl-5,6,7,8,9,10,11,12,15,16,17,17a,18,19,20,21-hexadecahydro-14H-dipyrido[2,1-f:3′,4′-p][1]oxa[4,7,10,14]tetraazacycloheptadecine-7-carboxamide] | 353 | 167
COc1nccc2c1C(=O)N[C@H](C(=O)NCCc1cc(C)no1)CC(=O)N(C)[C@@H](CC(C)C)C(=O)N1Cc3ccccc3C[C@@H]1C(=O)N[C@H](Cc1ccccc1)CO2 [Example 678, (7S,11S,19aR,22R)-22-benzyl-11-isobutyl-4-methoxy-10-methyl-N-(2-(3-methylisoxazol-5-yl)ethyl)-5,9,12,20-tetraoxo-5,6,7,8,9,10,11,12,19,19a,20,21,22,23-tetradecahydro-14H-pyrido[3′,4′:16,17][1]oxa[4,7,10,14]tetraazacycloheptadecino[7,6-b]isoquinoline-7-carboxamide] | 355 | 296
COc1nccc2c1C(=O)N[C@H](C(=O)NCCc1cc(C)no1)CC(=O)N(C)[C@@H](CC(C)C)C(=O)N1CCc3ccccc3[C@@H]1C(=O)N[C@H](Cc1ccccc1)CO2 [Example 679, (7S,11S,19bR,22R)-22-benzyl-11-isobutyl-4-methoxy-10-methyl-N-(2-(3-methylisoxazol-5-yl)ethyl)-5,9,12,20-tetraoxo-5,6,7,8,9,10,11,12,15,19b,20,21,22,23-tetradecahydro-14H-pyrido[3′,4′:16,17][1]oxa[4,7,10,14]tetraazacycloheptadecino[6,7-a]isoquinoline-7-carboxamide] | 869 | 277
COc1cccc(CCNC(=O)[C@@H]2CC(=O)N(C)[C@@H](CC(C)C)C(=O)N(C)[C@H](C)C(=O)N[C@H](Cc3ccccc3)COc3cnc4ccccc4c3C(=O)N2)c1 [Example 680, (3S,7S,10R,13R)-13-benzyl-7-isobutyl-N-(3-methoxyphenethyl)-6,9,10-trimethyl-1,5,8,11-tetraoxo-1,2,3,4,5,6,7,8,9,10,11,12,13,14-tetradecahydro-[1]oxa[4,7,10,14]tetraazacycloheptadecino[17,16-c]quinoline-3-carboxamide] | 448 | 340

Compounds with a lower EC50, results first:

EC50 [nM] | Emax [%] | SMILES
194 | 159 | CC(C)C[C@H]1C(=O)N2CC[C@@H](c3ccccc3)C[C@H]2C(=O)N[C@H](Cc2ccccc2)COc2cnc3ccccc3c2C(=O)N[C@H](C(=O)NCCc2cc(C3CC3)no2)CC(=O)N1C [Example 675, (9S,13S,19aS,22R)-22-benzyl-N-(2-(3-cyclopropylisoxazol-5-yl)ethyl)-13-isobutyl-12-methyl-7,11,14,20-tetraoxo-18-phenyl-7,8,9,10,11,12,13,14,17,18,19,19a,20,21,22,23-hexadecahydro-16H-pyrido[2′,1′:6,7][1]oxa[4,7,10,14]tetraazacycloheptadecino[17,16-c]quinoline-9-carboxamide]
160 | 330 | COc1nccc2c1C(=O)N[C@H](C(=O)NCCc1cc(C3CC3)no1)CC(=O)N(C)[C@@H](CC(C)C)C(=O)N1CCC3(CC3)C[C@@H]1C(=O)N[C@H](Cc1ccccc1)CO2 [Example 668, (7′S,11′S,17a′R,20′R)-20′-benzyl-N-(2-(3-cyclopropylisoxazol-5-yl)ethyl)-11′-isobutyl-4′-methoxy-10′-methyl-5′,9′,12′,18′-tetraoxo-5′,6′,7′,8′,9′,10′,11′,12′,14′,15′,17′,17a′,18′,19′,20′,21′-hexadecahydrospiro[cyclopropane-1,16′-dipyrido[2,1-f:3′,4′-p][1]oxa[4,7,10,14]tetraazacycloheptadecine]-7′-carboxamide]
103 | 312 | COc1nccc2c1C(=O)N[C@H](C(=O)NCCc1cc(C3CC3)no1)CC(=O)N(C)[C@@H](CC(C)C)C(=O)N1CC[C@@H](c3ccccc3)C[C@@H]1C(=O)N[C@H](Cc1ccccc1)CO2 [Example 672, (7S,11S,17aR,20R)-20-benzyl-N-(2-(3-cyclopropylisoxazol-5-yl)ethyl)-11-isobutyl-4-methoxy-10-methyl-5,9,12,18-tetraoxo-16-phenyl-5,6,7,8,9,10,11,12,15,16,17,17a,18,19,20,21-hexadecahydro-14H-dipyrido[2,1-f:3′,4′-p][1]oxa[4,7,10,14]tetraazacycloheptadecine-7-carboxamide]
67 | 314 | COc1nccc2c1C(=O)N[C@H](C(=O)NCCc1cc(C3CC3)no1)CC(=O)N(C)[C@@H](CC(C)C)C(=O)N1CC[C@H](c3ccccc3)C[C@@H]1C(=O)N[C@H](Cc1ccccc1)CO2 [Example 673, (7S,11S,17aR,20R)-20-benzyl-N-(2-(3-cyclopropylisoxazol-5-yl)ethyl)-11-isobutyl-4-methoxy-10-methyl-5,9,12,18-tetraoxo-16-phenyl-5,6,7,8,9,10,11,12,15,16,17,17a,18,19,20,21-hexadecahydro-14H-dipyrido[2,1-f:3′,4′-p][1]oxa[4,7,10,14]tetraazacycloheptadecine-7-carboxamide]
62 | 267 | CC(C)C[C@H]1C(=O)N2CC[C@@H](c3ccccc3)C[C@@H]2C(=O)N[C@H](Cc2ccccc2)COc2cnc3ccccc3c2C(=O)N[C@H](C(=O)NCCc2cc(C3CC3)no2)CC(=O)N1C [Example 676, (9S,13S,19aR,22R)-22-benzyl-N-(2-(3-cyclopropylisoxazol-5-yl)ethyl)-13-isobutyl-12-methyl-7,11,14,20-tetraoxo-18-phenyl-7,8,9,10,11,12,13,14,17,18,19,19a,20,21,22,23-hexadecahydro-16H-pyrido[2′,11:6,7][1]oxa[4,7,10,14]tetraazacycloheptadecino[17,16-c]quinoline-9-carboxamide]
37 | 283 | CC(C)C[C@H]1C(=O)N2CC[C@H](c3ccccc3)C[C@@H]2C(=O)N[C@H](Cc2ccccc2)COc2cnc3ccccc3c2C(=O)N[C@H](C(=O)NCCc2cc(C3CC3)no2)CC(=O)N1C [Example 677, (9S,13S,19aR,22R)-22-benzyl-N-(2-(3-cyclopropylisoxazol-5-yl)ethyl)-13-isobutyl-12-methyl-7,11,14,20-tetraoxo-18-phenyl-7,8,9,10,11,12,13,14,17,18,19,19a,20,21,22,23-hexadecahydro-16H-pyrido[2′,1′:6,7][1]oxa[4,7,10,14]tetraazacycloheptadecino[17,16-c]quinoline-9-carboxamide]
